Experimental data: patent US10385321B2, “MRP-14 targeting peptides and uses thereof” (priority 2016, dated 2019)
“Also recorded” adds a separate entry of the source. Where two headings read alike, the source gives them in different places. Positions of bridges follow the written chain, without caps; N, C: chain ends. Residues, ends and D or L forms follow the SMILES beside them. *: point of attachment. X1 = [N-]=[N+]=NC[C@H](NC(=O)CCC(=O)NCCCOCCOCCOCCCN*)C(=O)O

Legend:
MRP-14 [1] = molecular target: T1, MRP-14 (Homo sapiens, UniProt P06702); experiment: SPR binding of peptides to immobilized His-tagged MRP-14; conditions: for SPR binding behaviour (in words): sensorgrams, immobilized MRP-14
T1 construct: purchased Novus Biologicals
T1 sequence (P06702 1-114): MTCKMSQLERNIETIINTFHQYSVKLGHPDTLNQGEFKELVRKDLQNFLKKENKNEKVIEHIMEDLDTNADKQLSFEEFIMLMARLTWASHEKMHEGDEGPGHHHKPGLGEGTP
Method: Shortlisted MRP-14 targeting peptides (MTPs) were synthesized with a GGGS spacer and C-terminal amidation (Genscript) and their binding affinities characterized by SPR using Biacore T100 (GE Healthcare). PBST (0.05% Tween 20), pH 7.4 containing […] ethylenediaminetetraacetic acid (EDTA) was used as the running buffer. NTA sensor chips (GE Healthcare) were charged with 0.5 mM NiCl2 solution for 2 minutes at a flowrate of 10 μL/min, then 10 μg/mL His-tagged MRP-14 was bound for 2 minutes at 10 μL/min. For testing affinity to MRP-8/14, untagged MRP-8 (Novus Biologicals) was premixed in a 1:1 ratio with His-tagged MRP-14 for 3 hours in the presence of 0.1 mM CaCl2. Peptides at concentrations ranging from 6.25 μM to 100 μM diluted in running buffer were then injected at 30 μL/min for 1 minute association followed by 1 minute dissociation. Affinity was calculated by fitting a saturation binding curve to the equilibrium response vs. peptide concentration graph.
Their binding affinity to MRP-14 was then quantified using surface plasmon resonance (SPR) with an NTA sensor chip. After charging with Ni^2+, His-tagged MRP-14 was immobilized on the chip.

[2] = system: platelet thrombi in anticoagulated blood on collagen-coated capillaries; experiment: Ex vivo shear-induced thrombus formation in perfusion (flow) chamber; conditions: for effect on shear-induced thrombus formation: particles 50 μg/mL, arterial shear rate 600 s^−1, versus PBS only control
Method: A perfusion chamber (Portola Pharmaceuticals) was used to evaluate the effect of particles on thrombus formation time. Factor Xa inhibitor anticoagulated blood was labeled with […] Rhodamine 6G (Sigma-Aldrich) for 10 minutes. Particles were added at a final concentration of 50 μg/mL and then the blood perfused through human type III collagen-coated rectangular capillaries at an arterial shear rate of 600 s^−. Thrombus formation under flow was then visualized in real time and average fluorescence of platelet aggregation over time quantified.
Particles were added before perfusion at a concentration of 50 μg/mL, and visualization of thrombus formation was achieved through fluorescence signal from cells labeled with Rhodamine 6G (FIG. 5A). After imaging, average pixel intensity of platelet aggregates over time was quantified (FIG. 5B). […] This is a concern when using nanoparticles to target coagulation factors such as platelets and fibrin due to potential incorporation into the coagulation cascade and further aggregation, as illustrated by the use of such particles for mediating hemostasis.

MRP-8/14 = MRP-8/14 (Homo sapiens, UniProt P06702); experiment: biochemical
Method: Shortlisted MRP-14 targeting peptides (MTPs) were synthesized with a GGGS spacer and C-terminal amidation (Genscript) and their binding affinities characterized by SPR using Biacore T100 (GE Healthcare). PBST (0.05% Tween 20), pH 7.4 containing 50 ethylenediaminetetraacetic acid (EDTA) was used as the running buffer. NTA sensor chips (GE Healthcare) were charged with 0.5 mM NiCl2 solution for 2 minutes at a flowrate of 10 μL/min, then 10 μg/mL His-tagged MRP-14 was bound for 2 minutes at 10 μL/min. […] Peptides at concentrations ranging from 6.25 μM to 100 μM diluted in running buffer were then injected at 30 μL/min for 1 minute association followed by 1 minute dissociation. Affinity was calculated by fitting a saturation binding curve to the equilibrium response vs. peptide concentration graph.

MRP-14 [3] = molecular target: T1, MRP-14; experiment: Phage ELISA on MRP-14-coated plates; type: binding; conditions: BSA as background
Method: Phage specificity for MRP-14 was verified by performing an ELISA. Polysorp 96-well plates (Nunc) were coated with 50 μL of 50 μg/mL MRP-14 in 0.1 M NaHCO3, pH 8.6 in a humidified chamber overnight at 4° C. The coated wells and additional wells for phage dilutions were blocked with 5 mg/mL BSA in 0.1 M NaHCO3, pH 8.6 for 1 hour at 4° C. After washing 6 times with TBST (0.5% Tween 20), 8 serial fourfold dilutions from 10^12 phages/mL down to 6×10^7 phages/mL were performed in blocked wells then 100 μL of the phages added to MRP-14-coated wells and incubated for 1 hour at room temperature. […] Finally, HRP activity was detected using 100 μL 2,2′-azino-bis(3-ethylbenzothiazoline-6-sulfonic acid) diammonium salt (ABTS) colorimetric substrate solution (Life Technologies) at room temperature for 30 minutes. Absorbance was measured at 410 nm using a Tecan Infinite 200 plate reader
To narrow down the peptide library to the ones with highest affinity, an enzyme-linked immunosorbent assay (ELISA) was performed with the isolated phages. […] Bound phage was detected using horseradish peroxidase (HRP)-labeled anti-M13 antibodies followed by addition of 2,2′-azino-bis(3-ethylbenzothiazoline-6-sulfonic acid) diammonium salt (ABTS) substrate (FIG. 1). […]

[4] = sCy5-labeled particles i.v.; brain, lungs, heart, kidneys, spleen, liver
Method: 8-9 week old male C57BL/6 mice were anesthetized by intraperitoneal injection of 62.5 mg/kg sodium pentobarbital. After anesthesia, peptide-targeted and untargeted TMV particles (200 μg/100 μL) were injected intravenously followed by dissection of the mice to expose the right common carotid artery. […] Additionally, to study the biodistribution of the particles, the brain, heart, lungs, kidneys, spleen, and liver were also excised and imaged with Maestro imager.
(§1) The red fluorescence from sCy5 was imaged using Maestro imager, with 800 ms exposure time for the arteries and 400 ms exposure time for the organs. The signal was filtered with 576 to 621 nm excitation and 635-nm longpass emission filters.
Biodistribution was investigated concurrently with the photochemical injury model. The brain, lungs, heart, kidneys, spleen, and liver were collected and particle clearance examined through Maestro imaging (FIG. 6A).

[5] = system: thrombi in carotid artery; experiment: Photochemical injury mouse model of thrombosis, Maestro fluorescence imaging of carotid arteries; type: in vivo, C57BL/6 mice; conditions: sCy5-labeled particles 200 μg i.v. before injury; n=3; contralateral artery as control
Method: 8-9 week old male C57BL/6 mice were anesthetized by intraperitoneal injection of 62.5 mg/kg sodium pentobarbital. After anesthesia, peptide-targeted and untargeted TMV particles (200 μg/100 μL) were injected intravenously followed by dissection of the mice to expose the right common carotid artery. Rose Bengal dye (10 mg/mL in PBS) was then administered via tail vein injection and a 540 nm green laser light (1.5 mW, Melles Griot) placed 5 cm from the artery was used to stimulate photochemical injury and induce thrombus formation. A Doppler flow probe (Transonic Systems) was placed under the artery and used to monitor blood flow. The mice were sacrificed after vessel occlusion. The artery and the contralateral control were excised and fixed in formalin, then imaged by Maestro fluorescence imaging to determine targeting of the particles (see below).
as §1
Progressing to the mouse model, the particles were first injected intravenously, then thrombosis was induced through photochemical injury of the carotid artery, specifically through reactive oxygen species formation from the reaction of green laser light with injected Rose Bengal dye. A flow probe was used to monitor the development of thrombosis, and the arteries along with their contralateral control were excised following occlusion of the vessel.

[6] = kinetic fitting, 390.625 nM to 12.5 μM of MTP6

Sequence of MRP-8/14 (P05109 whole entry partner, one chain of several): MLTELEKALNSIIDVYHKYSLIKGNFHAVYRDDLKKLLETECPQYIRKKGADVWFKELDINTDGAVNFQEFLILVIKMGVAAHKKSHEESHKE

CC(C)[C@@H]1NC(=O)[C@H](CO)NC(=O)[C@H](CC(N)=O)NC(=O)[C@@H](NC(=O)[C@H](C)N)CSSC[C@@H](C(=O)NCC(=O)NCC(=O)NCC(=O)N[C@@H](CO)C(=O)NCCCOCCOCCOCCCNC(=O)CCC(=O)N[C@@H](CN=[N+]=[N-])C(=O)O)NC(=O)[C@H](Cc2c[nH]cn2)NC(=O)[C@H](Cc2c[nH]cn2)NC(=O)[C@H](CCC(N)=O)NC(=O)[C@H](Cc2c[nH]cn2)NC1=O [MTP6-N3] (H-ACNSVHQHHCGGGS-X1; disulfide 2-10; N-terminus assumed)
Kd (MRP-14 [1]; saturation binding curve fit of equilibrium response, peptides 6.25 μM to 100 μM, NTA chip, read-out: Kd (dissociation constant from SPR measurements with MRP-14)): 55.7 µM

CC(C)[C@@H]1NC(=O)[C@H](CO)NC(=O)[C@H](CC(N)=O)NC(=O)[C@@H](NC(=O)[C@H](C)N)CSSC[C@@H](C(=O)NCC(=O)NCC(=O)NCC(=O)N[C@@H](CO)C(N)=O)NC(=O)[C@H](Cc2c[nH]cn2)NC(=O)[C@H](Cc2c[nH]cn2)NC(=O)[C@H](CCC(N)=O)NC(=O)[C@H](Cc2c[nH]cn2)NC1=O [MTP6] (H-ACNSVHQHHCGGGS-NH2; disulfide 2-10 (inferred); N-terminus assumed)
effect on shear-induced thrombus formation [2]: does not appear to block involvement of MRP-14 in thrombosis
Kd (MRP-8/14): 57.6 µM
Kd (MRP-14 [1]): 39.6 µM

CC(C)C[C@@H]1NC(=O)CNC(=O)[C@H]([C@@H](C)O)NC(=O)[C@@H]2CCCN2C(=O)[C@@H](NC(=O)[C@H](C)N)CSSC[C@@H](C(=O)NCC(=O)NCC(=O)NCC(=O)N[C@@H](CO)C(N)=O)NC(=O)[C@H](C)NC(=O)[C@H](Cc2c[nH]cn2)NC(=O)[C@H](Cc2c[nH]cn2)NC1=O [MTP9] (H-ACPTGLHHACGGGS-NH2; disulfide 2-10 (inferred); N-terminus assumed)
SPR binding behaviour (in words) (MRP-14 [1]): quick initial interaction followed by a slower binding phase

C[C@H](N)C(=O)N[C@H]1CSSC[C@@H](C(=O)NCC(=O)NCC(=O)NCC(=O)N[C@@H](CO)C(=O)O)NC(=O)[C@H](CO)NC(=O)[C@H](Cc2c[nH]cn2)NC(=O)[C@H](CC(N)=O)NC(=O)[C@H](CC(N)=O)NC(=O)[C@H](CCCCN)NC(=O)[C@@H]2CCCN2C(=O)[C@H](CCCNC(=N)N)NC1=O [MTP10]
phage binding to MRP-14 (in words) (MRP-14 [3]): one of the best peptides
SPR binding behaviour (in words) (MRP-14 [1]): did not really associate with MRP-14

MDPHAHNGGGS [Scrambled, reference compound]
Kd (dissociation constant from SPR measurements with MRP-14) (MRP-14 [1]; saturation binding curve fit of equilibrium response, peptides 6.25 μM to 100 μM, NTA chip): no
SPR binding behaviour (in words) (MRP-14 [1]): low non-specific binding

B1: TMV-MTP6: MTP6-N3 attached to the exterior of tobacco mosaic virus by CuAAC, approximately 400 MTP6 per particle; sCy5-labeled for imaging (conjugate)
peptide: ACNSVHQHHCGGGS
chain: SYSITTPSQFVFLSSAWADPIELINLCTNALGNQFQTQQARTVVQRQFSEVWKPSPQVTVRFPDSDFKVYRYNAVLDPLVTALLGAFDTRNRIIEVENQANPTTAETLDATRRVDDATVAIRSAINNLIVELIRGTGSYNRSSFESSSGLVWTSGPAT
aggregation of particles in blood ([2]; ex vivo flow model): no aggregation observed
effect on shear-induced thrombus formation [2]: some delay in thrombus onset; also recorded: no stimulation of thrombosis; also recorded: no significant effect on thrombosis
biodistribution / route of clearance [4]: clearance predominantly through the liver
targeting of thrombi (fluorescence signal in injured artery) [5]: some success with imaging thrombi; also recorded: targeting was observed; also recorded: targeted TMV-MTP6 attachment to the thrombi and no nonspecific accumulation in the contralateral, uninjured artery
Kd (MRP-14 [1]; kinetic curve fitting instead of equilibrium fit, read-out: Kd (dissociation constant from SPR measurements with MRP-14), kinetic fit): 0.754 µM
ka (association rate) (MRP-14 [1]; [6]): 909.6 M⁻¹ s⁻¹
kd (dissociation rate) (MRP-14 [1]; [6]): 0.0006858 s⁻¹
